From PubChem BioAssay (NCI)
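A five-concentration, 48-hour dose response in 96-well plates underlies each endpoint, interpolated linearly between surrounding concentrations. The concentration for 50% growth inhibition is given as GI50. The concentration for full growth arrest is given as TGI.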

What was measured:
Experiment in all cases: inhibition of tumour cell growth, NCI panel, 48 h
KM20L2 colon = tested on: KM20L2 colon
K-562 leukemia = tested on: K-562 leukemia
COLO 205 colon = tested on: COLO 205 colon
HOP-92 NSCLC = tested on: HOP-92 NSCLC
SNB-78 CNS = tested on: SNB-78 CNS
UACC-62 melanoma = tested on: UACC-62 melanoma
HOP-62 NSCLC = tested on: HOP-62 NSCLC
RPMI-8226 leukemia = tested on: RPMI-8226 leukemia
EKVX NSCLC = tested on: EKVX NSCLC
PC-3 prostate = tested on: PC-3 prostate

Row | Compound | TGI (KM20L2 colon) [µM] | TGI (K-562 leukemia) [µM] | TGI (COLO 205 colon) [µM] | TGI (HOP-92 NSCLC) [µM] | TGI (SNB-78 CNS) [µM] | TGI (UACC-62 melanoma) [µM] | TGI (HOP-62 NSCLC) [µM] | TGI (RPMI-8226 leukemia) [µM] | TGI (EKVX NSCLC) [µM] | GI50 (KM20L2 colon) [µM] | GI50 (K-562 leukemia) [µM] | GI50 (COLO 205 colon) [µM] | GI50 (SNB-78 CNS) [µM] | GI50 (UACC-62 melanoma) [µM] | GI50 (RPMI-8226 leukemia) [µM] | GI50 (EKVX NSCLC) [µM] | TGI (PC-3 prostate) [µM]
1 | CC(C(=O)c1ccc(O)cc1)C1(O)C(=O)Nc2c(Cl)cc(Cl)cc21 (stereo not drawn) | > 100 | 32.6 | > 100 | > 100 | > 85.5 | 21.7 | > 100 | 71.5 | > 100 | – | – | – | – | – | – | – | –
2 | COC(=O)c1ccc(N/C=C(/C#N)c2ccsc2)cc1 | 28.1 | > 100 | > 100 | – | 43.4 | 60.5 | 28.2 | > 100 | 31.4 | – | – | – | – | – | – | – | –
3 | COc1ccc(C2C(C(=O)O)=C(CO)Oc3cc4c(cc32)OCO4)c(OC)c1 (stereo not drawn) | > 100 | > 100 | > 100 | > 100 | > 100 | > 100 | 72 | > 100 | > 100 | – | – | – | – | – | – | – | –
4 | CN(C)C(=S)/N=C(\N)N(C)C | > 100 | > 100 | – | > 100 | > 100 | > 100 | > 100 | > 100 | > 100 | – | – | – | – | – | – | – | –
5 | CNC(=O)NCCCCC(NC(=O)OCc1ccccc1)C(=O)OCc1ccccc1 (stereo not drawn) | > 100 | > 100 | 31.9 | 89.2 | 70.8 | 47.9 | 29.1 | 51.4 | > 100 | – | – | – | – | – | – | – | –
6 | CC(C)(C)CC(C)(C)c1cc2c(O)c(c1)Cc1cc(C(C)(C)CC(C)(C)C)cc(c1O)Cc1cc(C(C)(C)CC(C)(C)C)cc(c1O)Cc1cc(C(C)(C)CC(C)(C)C)cc(c1O)Cc1cc(C(C)(C)CC(C)(C)C)cc(c1O)Cc1cc(C(C)(C)CC(C)(C)C)cc(c1O)Cc1cc(C(C)(C)CC(C)(C)C)cc(c1O)Cc1cc(C(C)(C)CC(C)(C)C)cc(c1O)C2 | > 100 | > 100 | > 100 | > 100 | > 100 | > 100 | > 100 | > 100 | > 100 | – | – | – | – | – | – | – | –
7 | C=CC(=O)OCCCS(=O)(=O)[O-].C=CC(=O)OCCCS(=O)(=O)[O-].NC1CCCCC1N.[Pt+4] | > 25 | > 25 | > 25 | – | > 25 | > 25 | – | > 25 | > 25 | > 25 | > 25 | > 25 | > 25 | > 25 | > 25 | > 25 | –
8 | CC1=C(C(=O)NCc2ccccc2)C(c2ccc(N(C)C)cc2)C(C(=O)NCc2ccccc2)=C(C)N1 | > 100 | > 100 | > 100 | > 100 | > 100 | > 100 | > 100 | > 100 | > 100 | – | – | – | – | – | – | – | –
9 | O=C(/C=C/c1ccco1)N1CCN(Cc2ccccc2)CC1 | > 100 | – | – | > 100 | > 100 | > 100 | > 100 | > 100 | > 100 | – | – | – | – | – | – | – | –
10 | CC(C)=CC1(C)/C(=N\O)C(C)(CC(C)C)C(=O)N1O (stereo not drawn) | > 100 | > 100 | > 100 | > 100 | > 100 | > 100 | > 100 | > 100 | > 100 | – | – | – | – | – | – | – | –
11 | NC(CCSCCF)C(=O)O (stereo not drawn) | > 100 | > 100 | > 100 | > 100 | > 100 | > 100 | > 100 | > 100 | > 100 | – | – | – | – | – | – | – | –
12 | Cc1c(-c2cc(-c3ccccc3)n[nH]c2=O)c2ccccc2n1C | > 100 | > 100 | > 100 | > 100 | > 100 | > 100 | > 100 | > 100 | > 100 | – | – | – | – | – | – | – | –
13 | Nc1ncnc2c1N=CN(Oc1ccccc1)N2 | > 100 | > 100 | > 100 | > 100 | > 100 | > 100 | – | > 100 | > 100 | – | – | – | – | – | – | – | –
14 | CC(C)(C)[Si](C)(C)O/N=C\c1cccc(O[Si](C)(C)C(C)(C)C)c1 | 38.8 | 35.4 | 33.1 | 28.8 | 30.8 | 32.4 | 38.9 | 37.4 | 36.9 | – | – | – | – | – | – | – | –
15 | O=C(CC(=O)c1cccc2ccccc12)C(=O)Nc1nccs1 | > 100 | > 100 | > 100 | > 100 | > 100 | > 100 | > 100 | > 100 | > 100 | – | – | – | – | – | – | – | –
16 | CC/C(=N/O)C(C)C(=O)CCC(=O)Nc1ccc(Cl)cc1 (stereo not drawn) | > 100 | > 100 | > 100 | – | > 100 | > 100 | – | > 100 | > 100 | – | – | – | – | – | – | – | –
17 | COc1ccccc1NC(=O)C1=C(C)NC(C)=C(C(=O)Nc2ccccc2OC)C1c1ccc(C2C(C(=O)Nc3ccccc3OC)=C(C)NC(C)=C2C(=O)Nc2ccccc2OC)cc1 | 3.39 | 13.2 | 10.2 | 9.45 | 23.3 | 3.26 | 14 | 8 | 6.91 | – | – | – | – | – | – | – | –
18 | NC(=S)N/N=C1/C(=O)N(c2ccccc2)C(=O)C1C(=O)Nc1ccccc1 (stereo not drawn) | > 100 | – | > 100 | > 100 | > 100 | > 100 | > 100 | – | > 100 | – | – | – | – | – | – | – | –
19 | COc1ccccc1C(=O)Nc1ccc(Cl)c(C(=O)OC(C)C)c1 | > 100 | > 100 | > 100 | > 100 | > 100 | > 63.4 | > 100 | 77.6 | > 100 | – | – | – | – | – | – | – | > 100
